In article PMC4465654, “Multi-Leu PACE4 Inhibitor Retention within Cells Is PACE4 Dependent and a Prerequisite for Antiproliferative Activity” (BioMed Research International, 2015):
Entries after “also recorded” stand apart in the source; their conditions may differ. Where two headings read alike, the source gives them in different places. Where a SMILES comes first, the peptide text is derived from it.

Tests used:
[1] = tested on: HepG2 cells; experiment: MTT cell proliferation assay, HepG2; format: cell-based; conditions: 72 h, serum-free medium, 1 μM to 300 μM, means of at least 3 independent experiments (Figure 5a)
Protocol: (§1) To evaluate peptide growth inhibitory properties, 3000 (Huh7) and 4000 (HepG2) cells were seeded in triplicate in 96-well plates. After 24 h, media was changed for serum-free medium and increasing concentrations of peptide were added. After 72 h, 25 μL of 3-(4,5-Dimethylthiazol-2-yl)-2,5-diphenyltetrazolium bromide (MTT) reagent (5 mg/mL; Sigma Aldrich) was added to each well and, after 4-hour incubation, medium was carefully removed and cells were lysed in acidic isopropanol (24 : 1 HCl 1 N). Absorbance at 550 nm and 650 nm (reference wavelength) was measured using a plate spectrophotometer.
(§2) Figure 5 Antiproliferative properties of ML peptide on the tested cell lines. […] Data are means ± SEM of at least 3 independent experiments.

[2] = tested on: Huh7 cells; experiment: MTT cell proliferation assay, Huh7; format: cell-based; conditions: 72 h, serum-free medium, 1 μM to 300 μM, means of at least 3 independent experiments (Figure 5b)
Protocol: as §1, §2

[3] = tested on: HT1080 cells; experiment: MTT cell proliferation assay, HT1080; format: cell-based; conditions: 72 h, serum-free medium, 1 μM to 300 μM, means of at least 3 independent experiments (Figure 5c)
[4] = target: recombinant PACE4; conditions: in vitro inhibition, read-out: K i against recombinant PACE4, cited from earlier work

SMILES	inhibition of cell proliferation relative to untreated cells [1]	inhibition of cell proliferation relative to untreated cells [2]	inhibition of cell proliferation relative to untreated cells [3]	Ki [4]	Ki ([4]; independently of the addition of the NOTA moiety)
CC(=O)N[C@@H](CCCNC(=N)N)C(=O)N[C@@H](CC(C)C)C(=O)N[C@@H](CCCNC(=N)N)C(=O)N[C@@H](CC(C)C)C(=O)N[C@@H](CC(C)C)C(=O)N[C@@H](CCCCN)C(=O)N[C@H](C(=O)N[C@@H](CC(C)C)C(N)=O)C(C)C [scramble version of the ML peptide, Ac-RLRLLKVL-NH2, reference compound] (Ac-RLRLLKVL-NH2)	inactive	inactive	inactive	> 10 µM	–
CC(=O)N[C@@H](CC(C)C)C(=O)N[C@@H](CC(C)C)C(=O)N[C@@H](CC(C)C)C(=O)N[C@@H](CC(C)C)C(=O)N[C@@H](CCCNC(=N)N)C(=O)N[C@H](C(=O)N[C@@H](CCCCN)C(=O)N[C@@H](CCCNC(=N)N)C(N)=O)C(C)C [ML peptide, Ac-LLLLRVKR-NH2] (Ac-LLLLRVKR-NH2)	dose-response inhibition of cell proliferation	dose-response inhibition of cell proliferation	dose-response inhibition of cell proliferation; also recorded: lowest response	–	0.02 µM
